Source: ChEMBL document CHEMBL1201862, “PubChem BioAssay data set” (2004)
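Each compound was tested at five concentrations against cells in 96-well plates for 48 hours. At the GI50, growth is halved.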 Activity calls are given as the source filed them. Rule as the data show it: active = GI50 up to about 1.1 µM and inactive = higher.

Legend:
Experiment in all cases: growth of human tumour cells (NCI), 48 h
786-0 = test system: 786-0
A498 = test system: A498
A549 = test system: A549
ACHN = test system: ACHN
BT-549 = test system: BT-549
CAKI-1 = test system: CAKI-1
CCRF-CEM = test system: CCRF-CEM
COLO 205 = test system: COLO 205
DU-145 = test system: DU-145
EKVX = test system: EKVX
HCC 2998 = test system: HCC 2998
HCT-116 = test system: HCT-116
HCT-15 = test system: HCT-15
HL-60 = test system: HL-60
HOP-62 = test system: HOP-62
HOP-92 = test system: HOP-92
HT-29 = test system: HT-29
Hs-578T = test system: Hs-578T
IGROV-1 = test system: IGROV-1
K562 = test system: K562
KM12 = test system: KM12
LOX IMVI = test system: LOX IMVI
MCF7 = test system: MCF7
MDA-MB-231 = test system: MDA-MB-231
MDA-MB-435 = test system: MDA-MB-435
MDA-N = test system: MDA-N
MOLT-4 = test system: MOLT-4
Malme-3M = test system: Malme-3M
NCI-H226 = test system: NCI-H226
NCI-H23 = test system: NCI-H23
NCI-H460 = test system: NCI-H460
NCI-H522 = test system: NCI-H522
NCI/ADR-RES = test system: NCI/ADR-RES
OVCAR-3 = test system: OVCAR-3
OVCAR-4 = test system: OVCAR-4
OVCAR-5 = test system: OVCAR-5
OVCAR-8 = test system: OVCAR-8
PC-3 = test system: PC-3
RPMI-8226 = test system: RPMI-8226
RXF 393 = test system: RXF 393
SF-268 = test system: SF-268
SF-295 = test system: SF-295
SF-539 = test system: SF-539
SK-MEL-28 = test system: SK-MEL-28
SK-MEL-2 = test system: SK-MEL-2
SK-MEL-5 = test system: SK-MEL-5
SK-OV-3 = test system: SK-OV-3
SN12C = test system: SN12C
SNB-19 = test system: SNB-19
SNB-75 = test system: SNB-75
SR = test system: SR
SW-620 = test system: SW-620
T47D = test system: T47D
TK-10 = test system: TK-10
U-251 = test system: U-251
UACC-257 = test system: UACC-257
UACC-62 = test system: UACC-62
UO-31 = test system: UO-31
M14 = test system: M14

O=Cc1[nH]c(=O)[nH]c(=O)c1CCl
GI50 (786-0): 74.8 µM (inactive) | GI50 (A498): > 100 µM (inactive) | GI50 (A549): > 100 µM (inactive) | GI50 (ACHN): > 83 µM (inactive) | GI50 (BT-549): > 100 µM (inactive) | GI50 (CAKI-1): > 100 µM (inactive) | GI50 (CCRF-CEM): > 52.7 µM (inactive) | GI50 (COLO 205): > 62.7 µM (inactive) | GI50 (DU-145): > 100 µM (inactive) | GI50 (EKVX): > 100 µM (inactive) | GI50 (HCC 2998): > 100 µM (inactive) | GI50 (HCT-116): 50.5 µM (inactive) | GI50 (HCT-15): > 65.8 µM | GI50 (HL-60): 38 µM (inactive) | GI50 (HOP-62): > 100 µM (inactive) | GI50 (HOP-92): > 62.1 µM (inactive) | GI50 (HT-29): > 88.9 µM (inactive) | GI50 (Hs-578T): > 100 µM (inactive) | GI50 (IGROV-1): > 100 µM (inactive) | GI50 (K562): 50.8 µM (inactive) | GI50 (KM12): > 100 µM (inactive) | GI50 (LOX IMVI): 30 µM (inactive) | GI50 (MCF7): > 65.8 µM (inactive) | GI50 (MDA-MB-231): > 100 µM (inactive) | GI50 (MDA-MB-435): > 100 µM (inactive) | GI50 (MDA-N): > 100 µM (inactive) | GI50 (MOLT-4): > 96.8 µM (inactive) | GI50 (Malme-3M): > 100 µM (inactive) | GI50 (NCI-H226): > 100 µM (inactive) | GI50 (NCI-H23): > 100 µM (inactive) | GI50 (NCI-H460): > 55.8 µM (inactive) | GI50 (NCI-H522): > 100 µM (inactive) | GI50 (NCI/ADR-RES): > 100 µM (inactive) | GI50 (OVCAR-3): > 100 µM (inactive) | GI50 (OVCAR-4): > 60.5 µM (inactive) | GI50 (OVCAR-5): > 100 µM (inactive) | GI50 (OVCAR-8): > 82.4 µM (inactive) | GI50 (PC-3): > 100 µM (inactive) | GI50 (RPMI-8226): > 48.6 µM (inactive) | GI50 (RXF 393): 71.6 µM (inactive) | GI50 (SF-268): > 59.3 µM (inactive) | GI50 (SF-295): > 100 µM (inactive) | GI50 (SF-539): > 63.2 µM (inactive) | GI50 (SK-MEL-28): > 100 µM (inactive) | GI50 (SK-MEL-2): > 90.2 µM (inactive) | GI50 (SK-MEL-5): > 82 µM (inactive) | GI50 (SK-OV-3): > 100 µM (inactive) | GI50 (SN12C): > 100 µM (inactive) | GI50 (SNB-19): > 100 µM (inactive) | GI50 (SNB-75): 10.9 µM (inactive) | GI50 (SR): 30.6 µM (inactive) | GI50 (SW-620): 38.7 µM (inactive) | GI50 (T47D): > 100 µM (inactive) | GI50 (TK-10): > 100 µM (inactive) | GI50 (U-251): > 61 µM (inactive) | GI50 (UACC-257): > 100 µM (inactive) | GI50 (UACC-62): > 96.4 µM (inactive) | GI50 (UO-31): > 100 µM (inactive)

O=C(Nc1ccccc1)c1cc(S(=O)(=O)Nc2n[nH]c(=O)n2-c2ccccc2)c(S)cc1Cl
GI50 (786-0): > 100 µM (inactive) | GI50 (A498): > 100 µM (inactive) | GI50 (A549): > 100 µM (inactive) | GI50 (BT-549): > 100 µM (inactive) | GI50 (CAKI-1): > 100 µM (inactive) | GI50 (COLO 205): > 100 µM (inactive) | GI50 (DU-145): > 100 µM (inactive) | GI50 (EKVX): > 100 µM (inactive) | GI50 (HCC 2998): > 100 µM (inactive) | GI50 (HCT-116): > 100 µM (inactive) | GI50 (HCT-15): > 100 µM | GI50 (HL-60): > 100 µM (inactive) | GI50 (HOP-92): > 100 µM (inactive) | GI50 (HT-29): > 100 µM (inactive) | GI50 (Hs-578T): > 100 µM (inactive) | GI50 (IGROV-1): > 100 µM (inactive) | GI50 (K562): > 100 µM (inactive) | GI50 (KM12): > 100 µM (inactive) | GI50 (LOX IMVI): > 100 µM (inactive) | GI50 (M14): > 100 µM (inactive) | GI50 (MCF7): > 100 µM (inactive) | GI50 (MDA-MB-231): > 100 µM (inactive) | GI50 (MDA-MB-435): > 100 µM (inactive) | GI50 (MDA-N): > 100 µM (inactive) | GI50 (MOLT-4): > 100 µM (inactive) | GI50 (Malme-3M): > 100 µM (inactive) | GI50 (NCI-H226): > 100 µM (inactive) | GI50 (NCI-H460): > 100 µM (inactive) | GI50 (NCI-H522): > 100 µM (inactive) | GI50 (NCI/ADR-RES): > 100 µM (inactive) | GI50 (OVCAR-3): > 100 µM (inactive) | GI50 (OVCAR-4): > 100 µM (inactive) | GI50 (OVCAR-5): > 100 µM (inactive) | GI50 (OVCAR-8): > 100 µM (inactive) | GI50 (PC-3): > 100 µM (inactive) | GI50 (RPMI-8226): > 100 µM (inactive) | GI50 (RXF 393): > 100 µM (inactive) | GI50 (SF-268): > 100 µM (inactive) | GI50 (SF-539): > 100 µM (inactive) | GI50 (SK-MEL-28): > 100 µM (inactive) | GI50 (SK-MEL-2): > 100 µM (inactive) | GI50 (SK-MEL-5): > 100 µM (inactive) | GI50 (SK-OV-3): > 100 µM (inactive) | GI50 (SN12C): > 100 µM (inactive) | GI50 (SNB-19): > 100 µM (inactive) | GI50 (SNB-75): > 100 µM (inactive) | GI50 (SR): > 100 µM (inactive) | GI50 (SW-620): > 100 µM (inactive) | GI50 (T47D): > 100 µM (inactive) | GI50 (TK-10): > 100 µM (inactive) | GI50 (U-251): > 100 µM (inactive) | GI50 (UACC-257): > 100 µM (inactive) | GI50 (UACC-62): > 100 µM (inactive) | GI50 (UO-31): > 100 µM (inactive)
